Calls of active or inactive are those of the source. The rule behind the calls is not given here.
What was measured:
U373-MAGI [1] = assay: Effect on 5-aza-dCTP level in human U373-MAGI cells at 2 mM preincubated for 2 hrs followed by 5-aza-dC addition measured after 4 hrs by LC-MS/MS analysis; assay type: functional, cell-based
U373-MAGI [2] = assay: Reduction in dCTP level in human U373-MAGI cells at 2 mM preincubated for 2 hrs followed by 5-aza-dC addition measured after 4 hrs by LC-MS/MS analysis relative to 5-aza-dC; assay type: functional, cell-based
U373-MAGI [3] = assay: Increase in 5-aza-dCTP/dCTP ratio in human U373-MAGI cells at 2 mM preincubated for 2 hrs followed by 5-aza-dC addition measured after 4 hrs by LC-MS/MS analysis relative to 5-aza-dC; assay type: functional, cell-based
U373-MAGI [4] = assay: Reduction in dCTP level in human U373-MAGI cells at 0.5 mM after 6 hrs by LC-MS/MS analysis; assay type: functional, cell-based
U373-MAGI [5] = assay: Reduction in dTTP level in human U373-MAGI cells at 2 mM after 6 hrs by LC-MS/MS analysis; assay type: functional, cell-based
U373-MAGI [6] = assay: Reduction in dCTP level in human U373-MAGI cells at 2 mM preincubated for 2 hrs followed by 5-aza-C addition measured after 4 hrs by LC-MS/MS analysis relative to 5-aza-C; assay type: functional, cell-based
[7] = test system: Human immunodeficiency virus 1; assay: Antiviral activity against VSV-G pseudotyped HIV-1 NL4-3 infected in human U373-MAGI cells assessed as reduction in viral infectivity at 500 uM incubated for 4 hrs prior to viral infection measured at 72 hrs post infection by flow cytometric analysis; assay type: functional, organism-based
U373-MAGI [8] = assay: Reduction in dTTP level in human U373-MAGI cells at 0.5 mM after 6 hrs by LC-MS/MS analysis; assay type: functional, cell-based
U373-MAGI [9] = assay: Reduction in dATP level in human U373-MAGI cells at 0.5 mM after 6 hrs by LC-MS/MS analysis; assay type: functional, cell-based
U373-MAGI [10] = assay: Effect on dRGU-TP level in human U373-MAGI cells at 2 mM preincubated for 2 hrs followed by 5-aza-dC addition measured after 4 hrs by LC-MS/MS analysis; assay type: functional, cell-based
U373-MAGI [11] = assay: Reduction in dGTP level in human U373-MAGI cells at 0.5 mM after 6 hrs by LC-MS/MS analysis; assay type: functional, cell-based
U373-MAGI [12] = assay: Reduction in dGTP level in human U373-MAGI cells at 2 mM after 6 hrs by LC-MS/MS analysis; assay type: functional, cell-based
U373-MAGI [13] = assay: Reduction in dCTP level in human U373-MAGI cells at 2 mM after 6 hrs by LC-MS/MS analysis; assay type: functional, cell-based
U373-MAGI [14] = assay: Effect on 5-aza-dCTP level in human U373-MAGI cells at 0.5 mM preincubated for 2 hrs followed by 5-aza-dC addition measured after 4 hrs by LC-MS/MS analysis; assay type: functional, cell-based
U373-MAGI [15] = assay: Increase in 5-aza-dCTP/dCTP ratio in human U373-MAGI cells at 0.5 mM preincubated for 2 hrs followed by 5-aza-dC addition measured after 4 hrs by LC-MS/MS analysis relative to 5-aza-dC; assay type: functional, cell-based
U373-MAGI [16] = assay: Reduction in dRGU-TP level in human U373-MAGI cells at 0.5 mM preincubated for 2 hrs followed by 5-aza-C addition measured after 4 hrs by LC-MS/MS analysis; assay type: functional, cell-based
U373-MAGI [17] = assay: Effect on dRGU-TP level in human U373-MAGI cells at 0.5 mM preincubated for 2 hrs followed by 5-aza-dC addition measured after 4 hrs by LC-MS/MS analysis; assay type: functional, cell-based
U373-MAGI [18] = assay: Reduction in 5-aza-dCTP level in human U373-MAGI cells at 2 mM preincubated for 2 hrs followed by 5-aza-C addition measured after 4 hrs by LC-MS/MS analysis; assay type: functional, cell-based
U373-MAGI [19] = assay: Reduction in dRGU-TP level in human U373-MAGI cells at 2 mM preincubated for 2 hrs followed by 5-aza-C addition measured after 4 hrs by LC-MS/MS analysis; assay type: functional, cell-based
U373-MAGI [20] = assay: Increase in 5-aza-dCTP/dCTP ratio in human U373-MAGI cells at 2 mM preincubated for 2 hrs followed by 5-aza-C addition measured after 4 hrs by LC-MS/MS analysis relative to 5-aza-C; assay type: functional, cell-based
[21] = Cytotoxicity against human U373-MAGI cells at 500 uM measured at 72 hrs by Celltiter-Glo luminescent cell viability assay; assay type: cell-based
U373-MAGI [22] = assay: Reduction in dCTP level in human U373-MAGI cells at 0.5 mM preincubated for 2 hrs followed by 5-aza-C addition measured after 4 hrs by LC-MS/MS analysis; assay type: functional, cell-based
U373-MAGI [23] = assay: Reduction in 5-aza-dCTP level in human U373-MAGI cells at 0.5 mM preincubated for 2 hrs followed by 5-aza-C addition measured after 4 hrs by LC-MS/MS analysis; assay type: functional, cell-based
[24] = test system: Human immunodeficiency virus 1; assay: Potentiation of 5-Aza-C-induced antiviral activity against VSV-G pseudotyped HIV-1 NL4-3 infected in human U373-MAGI cells assessed as decrease in 5-Aza-C EC50 at 500 uM preincubated for 2 hrs followed by 5-Aza-C addition for 2 hrs and subsequent viral infection measured at 72 hrs post infection by flow cytometric analysis relative to control; assay type: functional
U373-MAGI [25] = assay: Increase in 5-aza-dCTP/dCTP ratio in human U373-MAGI cells at 0.5 mM preincubated for 2 hrs followed by 5-aza-C addition measured after 4 hrs by LC-MS/MS analysis relative to 5-aza-C; assay type: functional, cell-based
U373-MAGI [26] = assay: Reduction in dCTP level in human U373-MAGI cells at 0.5 mM preincubated for 2 hrs followed by 5-aza-dC addition measured after 4 hrs by LC-MS/MS analysis relative to 5-aza-dC; assay type: functional, cell-based
U373-MAGI [27] = assay: Reduction in dATP level in human U373-MAGI cells at 2 mM after 6 hrs by LC-MS/MS analysis; assay type: functional, cell-based
[28] = Reduction in dCTP level in human U373-MAGI cells at EC75 after 4 hrs by LC-MS/MS analysis relative to control; assay type: functional; parameters: scale not given: the % may be the effect or the level left
[29] = test system: Human immunodeficiency virus 1; assay: Antiviral activity against VSV-G pseudotyped HIV-1 NL4-3 infected in human U373-MAGI cells assessed as Gag mutation at 260 uM incubated for 2 hrs prior to infection measured at 72 hrs post infection by illumina sequencing method (reference value: 18.4%); assay type: functional
[30] = test system: Human immunodeficiency virus 1; assay: Antiviral activity against VSV-G pseudotyped HIV-1 NL4-3 infected in human U373-MAGI cells assessed as Pol mutation at 260 uM incubated for 2 hrs prior to infection measured at 72 hrs post infection by illumina sequencing method (reference value: 18.5%); assay type: functional
[31] = test system: Human immunodeficiency virus 1; assay: Antiviral activity against VSV-G pseudotyped HIV-1 NL4-3 infected in human U373-MAGI cells assessed as increase in frequency of G to C transversion at 260 uM incubated for 2 hrs prior to infection measured at 72 hrs post infection by illumina sequencing method relative to control; assay type: functional
[32] = test system: Human immunodeficiency virus 1; assay: Antiviral activity against VSV-G pseudotyped HIV-1 NL4-3 infected in human U373-MAGI cells assessed as C to G transversion at 260 uM incubated for 2 hrs prior to infection measured at 72 hrs post infection by illumina sequencing method relative to control; assay type: functional
[33] = test system: Human immunodeficiency virus 1; assay: Antiviral activity against VSV-G pseudotyped HIV-1 NL4-3 infected in human U373-MAGI cells assessed as Nef mutation at 260 uM incubated for 2 hrs prior to infection measured at 72 hrs post infection by illumina sequencing method (reference value: 22.6%); assay type: functional
[34] = test system: Human immunodeficiency virus 1; assay: Antiviral activity against VSV-G pseudotyped HIV-1 NL4-3 infected in human U373-MAGI cells assessed as increase in mutation frequency at 260 uM incubated for 2 hrs prior to infection measured at 72 hrs post infection by illumina sequencing method; assay type: functional
[35] = test system: Human immunodeficiency virus 1; assay: Antiviral activity against VSV-G pseudotyped HIV-1 NL4-3 infected in human U373-MAGI cells assessed as reduction in gag level at 25 to 400 uM after 2 to 72 hrs by qPCR method; assay type: functional, organism-based
[36] = test system: Human immunodeficiency virus 1; assay: Antiviral activity against VSV-G pseudotyped HIV-1 NL4-3 infected in human U373-MAGI cells assessed as increase in frequency of C to G transversion at 260 uM incubated for 2 hrs prior to infection measured at 72 hrs post infection by illumina sequencing method relative to control; assay type: functional
[37] = test system: Human immunodeficiency virus 1; assay: Antiviral activity against VSV-G pseudotyped HIV-1 NL4-3 infected in human U373-MAGI cells assessed as Vif mutation at 260 uM incubated for 2 hrs prior to infection measured at 72 hrs post infection by illumina sequencing method (reference value: 19.2%); assay type: functional
[38] = test system: Human immunodeficiency virus 1; assay: Antiviral activity against VSV-G pseudotyped HIV-1 NL4-3 infected in human U373-MAGI cells assessed as Env mutation at 260 uM incubated for 2 hrs prior to infection measured at 72 hrs post infection by illumina sequencing method (reference value: 21.4%); assay type: functional
[39] = test system: Human immunodeficiency virus 1; assay: Antiviral activity against VSV-G pseudotyped HIV-1 NL4-3 infected in human U373-MAGI cells assessed as reduction in U5-gag level at 25 to 400 uM after 2 to 72 hrs by qPCR method; assay type: functional, organism-based
[40] = test system: Human immunodeficiency virus 1; assay: Antiviral activity against VSV-G pseudotyped HIV-1 NL4-3 infected in human U373-MAGI cells assessed as G to C transversion at 260 uM incubated for 2 hrs prior to infection measured at 72 hrs post infection by illumina sequencing method relative to control; assay type: functional

NC(=O)NO [HYDROXYUREA]
Activity (U373-MAGI [1]): inactive
Activity (U373-MAGI [2]): Active
Activity (U373-MAGI [3]): Active
Activity (U373-MAGI [4]): inactive
Activity (U373-MAGI [5]): inactive
Activity (U373-MAGI [6]): Active
Activity [7]: Active
Activity (U373-MAGI [8]): inactive
Activity (U373-MAGI [9]): inactive
Activity (U373-MAGI [10]): inactive
Activity (U373-MAGI [11]): inactive
Activity (U373-MAGI [12]): inactive
Activity (U373-MAGI [13]): inactive
Activity (U373-MAGI [14]): inactive
Activity (U373-MAGI [15]): Active
Activity (U373-MAGI [16]): inactive
Activity (U373-MAGI [17]): inactive
Activity (U373-MAGI [18]): inactive
Activity (U373-MAGI [19]): inactive
Activity (U373-MAGI [20]): inactive
Activity [21]: Non-toxic
Activity (U373-MAGI [22]): Active
Activity (U373-MAGI [23]): inactive
fold change (FC) [24]: 2.5
Activity (U373-MAGI [25]): Active
Activity (U373-MAGI [26]): Active
Activity (U373-MAGI [27]): Active

Nc1ncn([C@@H]2O[C@H](CO)[C@@H](O)[C@H]2O)c(=O)n1 [AZACITIDINE]
Activity [28]: 50%
Activity [29]: 17%
Activity [30]: 25.8%
fold change (FC) [31]: 67
Activity [32]: 10%
Activity [33]: 25.4%
fold change (FC) [34]: 6.8
Activity [35]: Active
fold change (FC) [36]: 43
Activity [37]: 12.8%
Activity [38]: 19.1%
Activity [39]: Active
Activity [40]: 60%

Reference: ChEMBL document CHEMBL3797079, “Synergistic reduction of HIV-1 infectivity by 5-azacytidine and inhibitors of ribonucleotide reductase” (Bioorg Med Chem, 2016)
